Measured values reported in paper PMC2150313 (British Journal of Cancer, 1998).
Read-outs that look alike come from different tables or passages of the source.

Experiments:
[1] = Rat pharmacokinetics: plasma 4-OH-IF and chloroacetaldehyde after i.v. IF, with P450 inducer/inhibitor pretreatment
From the text: British Joumal of Cancer (1998) 77(11), 1768-1776 ? […] Both reactions are catalysed by multiple liver P450 enzymes in vitro in isolated rat liver microsomes. […] The identification of those P450s that contribute specifically to these individual meta- bolic pathways is of particular interest, given the large degree of interindividual differences in the catalytic activities of specific P450s seen in human liver samples (Shimada et al, 1994). […] This complexation, in turn, results in an inhibition of these P450s. Inhibition of P450 2B 1 by non-covalent interaction with the haem ligand metyrapone (MTP) has also been reported (Waxman and Walsh, 1983; Halpert, 1995). […] MTP and other specialty chemi- cals were of the highest grade commercially available and were obtained from Aldrich Chemical (Milwaukee, WI, USA). Animals Male Fischer 344 rats (160-250 g; 7-11 weeks of age) were purchased from Taconic (Germantown, NY, USA). Animals were maintained in individual plastic cages under conditions of constant temperature (22?C), lighting (12-h dark-light cycle) and humidity, and provided with food and water ad libitum, in accordance with the National Institutes of Health Guide for the Care and Use of Laboratory Animals. Rat pharmacokinetics Surgery For kinetic studies, rats were implanted with an indwelling cannula (silicone medical grade/polyethylene tubing) in the right jugular vein to allow blood sampling and drug administration. Surgery was performed under ketamine (Ketaset 95 mg kg-') and xylazine (Rompun 12 mg kg-') anaesthesia 3-4 days before the kinetic experiment. After cannulation, a Rodent Infusion Set obtained from Lomin (Quebec, Canada) was used to withdraw blood samples at appropriate time intervals. Catheters were flushed daily with heparinized saline (20 U ml-') to prevent clotting. […] The sample was then diluted in 0.9% saline to the final required volume and the pH adjusted to pH 4 with 1 M sodium hydroxide. […] At each time point, the rats were given an injection of 0.5 ml of 0.9% saline through the catheter to replace the volume of blood withdrawn. […] Data shown at each pharmacokinetic sampling point are means ? s.d. values. […] Plasma samples (100 gl of supematant) were removed and stored at -80?C until analysis. Plasma proteins were precipitated by successive addition of 40 gl of ice-cold 5.5% (w/v) zinc sulphate, 40 gl of ice-cold saturated barium hydroxide and 20 gl of ice-cold 0.01 M hydrochloric acid. Samples were centrifuged for 15 min at 16 000 g, and 125 gl of the supernatant was added to 67 gl of a solution containing 6 mg of 3-amino- phenol and 6 mg of hydroxylamine hydrochloride dissolved in 1 ml of 1 M hydrochloric acid. Samples were heated at 90?C for 30 min in the dark, then allowed to cool to room temperature and diluted with 408 pl of distilled water before reading the fluores- cence (350 nm excitation and 515 nm emission) on a Shimadzu RF15 spectrofluorophotometer. […] CA present in the plasma samples was derivatized with thiourea to produce 2-aminothiazole, which was assayed by high-performance liquid chromatography (HPLC) after solid- phase extraction by a modification of published methods (Yu and Waxman, 1996). Briefly, a 208-gl aliquot of heparinized blood was immediately mixed with 1 mm formaldehyde to stabilize CA, and then deproteinized with 25.2 pl of ice-cold 70% perchloric acid. After centrifugation (16 000 g for 4 min) at room temperature, 140 pl of the supernatant was added to 21 pl of 100 mM thiourea. […] The derivatized samples were stored at -80?C until analysis (usually within 2 weeks). The 2-aminothia- zole product was isolated using a 100-mg Bond Elut SCX cation- exchange column (Varian), and then eluted, evaporated in vacuo in a Speed Vac and analysed by HPLC on an Alltech Econosphere C18 column with an absorbance detector operating at a wavelength of 254 nm.

rat liver microsomes = test system: rat liver microsomes; parameters: method as in Yu and Waxman, 1996; details: ref Yu and Waxman, 1996, cited from earlier work
P450 2B1 = target: T1, P450 2B1 (Rattus norvegicus, UniProt P00176); details: isolated liver microsomes, vs untreated
T1 sequence (P00176 1-491): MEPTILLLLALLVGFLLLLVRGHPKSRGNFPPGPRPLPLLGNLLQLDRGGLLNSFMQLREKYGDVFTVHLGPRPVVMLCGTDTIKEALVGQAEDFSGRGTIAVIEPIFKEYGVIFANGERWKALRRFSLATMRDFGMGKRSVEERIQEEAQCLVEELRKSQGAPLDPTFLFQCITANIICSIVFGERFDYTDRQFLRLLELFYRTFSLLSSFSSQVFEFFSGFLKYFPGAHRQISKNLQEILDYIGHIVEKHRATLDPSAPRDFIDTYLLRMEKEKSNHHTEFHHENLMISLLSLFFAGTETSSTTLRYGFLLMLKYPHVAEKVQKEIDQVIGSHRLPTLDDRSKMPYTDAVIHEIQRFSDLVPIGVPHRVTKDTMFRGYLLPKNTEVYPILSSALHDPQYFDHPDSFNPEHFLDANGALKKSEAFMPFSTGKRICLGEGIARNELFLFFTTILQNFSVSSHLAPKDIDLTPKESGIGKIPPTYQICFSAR

[2] = after IF 100 mg kg-1 i.v., DEX 50 mg kg-1 for 3 days
[3] = after IF 100 mg kg-1 i.v., PB20 rats given MTP 5 min before IF

Question: For `O=P1(NCCCl)OCCC(O)N1CCCl` (stereo not drawn) [4-OH-IF, 4-hydroxy IF], which tmax [1, 2] is on record?
Answer: 4 min

Question: And the tmax [1, 3]?
Answer: 4 min

Question: And the “tmax (time to reach peak plasma concentration)” value ([1]; after IF 100 mg kg-1 i.v., untreated (UT) rats)?
Answer: 4 to 10 min

Question: Which tmax [1, 2] does the source give for `O=CCCl` [CA, chloroacetaldehyde] here?
Answer: 10 min

Question: And the tmax [1, 3]?
Answer: 60 min

Question: What about the tmax ([1]; after IF 100 mg kg-1 i.v., PB-pretreated rats (PB20 and PB80, Figure 1B and C)) of the same molecule?
Answer: 4 min

Question: And the Cmax ([1]; plasma, IF 100 mg kg-1 i.v., PB80+TAO group (TAO 500 mg kg-1 2 h before IF), n=3)?
Answer: 172 µM

Question: With `O=P1(NCCCl)OCCCN1CCCl` (stereo not drawn) [IF, ifosfamide] as the molecule, how does the “extent of in vitro IF N-dechloroethylation, of total metabolism” value (rat liver microsomes; liver microsomes of DEX-treated male rats) read?
Answer: 24%

Question: And the “extent of in vitro IF N-dechloroethylation, of total metabolism” value (rat liver microsomes; liver microsomes of male rats without DEX treatment)?
Answer: 47%

Question: Which “increase in CA half-life” value ([1]; male, Fischer 344, rat, in vivo, ip) does the source give for `Cc1ccccc1C(OCCN(C)C)c1ccccc1` (stereo not drawn) [ORP, orphenadrine, reference compound] here?
Answer: approximately 30%

Question: With `CCC1(c2ccccc2)C(=O)NC(=O)NC1=O` [PB, phenobarbital] as the molecule, how does the “induction of androstenedione 16β-hydroxylase activity” value (P450 2B1; PB20 regimen) read?
Answer: fivefold

Question: What about the “induction of androstenedione 16β-hydroxylase activity” value (P450 2B1; PB80 regimen) of the same molecule?
Answer: 7.5 fold
